Measurements reported in US8785594B2, “Glycoproteins and glycosylated cells and a method for the preparation of the same” (Glycom A/S, priority 2007, dated 2014).

Test system: human breast cancer-cell line
Experiment: Flow cytometry with fluorescent labeled-lectin of modified cells (Examples 8-10)
Format: cell-based
Details: 25 mg, PBS, 3 h at 37° C.
Experimental: α-Gal epitope-cyclic carbamate 6 (disaccharide) (25 mg) and human breast cancer-cell line 7 (2×10^6 number cell) were mixed in PBS buffer (5 mL) (see FIG. 3). The mixture was kept for 3 h at 37° C., and then the mixture was subjected to centrifugation to separate the cells from the medium.
α-Gal epitope-carbamate 6 (disaccharide) (25 mg) and human breast cancer-cell line 7 (1×10^6 number cell) were mixed in PBS buffer (5 mL) (see FIG. 3). The mixture was kept for 3 h at 37° C., and then the mixture was subjected to centrifugation to separate the cells from the medium.
α-Gal epitope-carbamate 6 (disaccharide) (25 mg) and human breast cancer-cell line 7 (5×10^5 number cell) were mixed in PBS buffer (5 mL) (see FIG. 3). The mixture was kept for 3 h at 37° C., and then the mixture was subjected to centrifugation to separate the cells from the medium.

Measured: Modification of cells shown with fluorescent labeled-lectin

O=C1NC2OC(CO)C(O)C(OC3OC(CO)C(O)C(O)C3O)C2O1 (stereo not drawn) [Compound 6, α-Gal epitope-cyclic carbamate]
modification has been proven: 1×10^6 cells | 2×10^6 cells | 5×10^5 cells
